# In the supplement of paper PMC10307832:
# How the values were obtained:
# Experiment in all cases: relative viability (nuclei count vs DMSO), 5 days (fraction); higher = more cells survive
# [1] = compound: NS(=O)(=O)OC[C@@H]1C[C@@H](n2ccc3c(N[C@H]4CCc5ccccc54)ncnc32)C[C@@H]1O [MLN4924] + O=C(CCCCCCC(=O)Nc1ccccc1)NO [Vorinostat] (partner 1 µM)
# Outline: (§1)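 Medians of duplicate plates are given as relative viability. That measure is the nuclei count in treated wells divided by the count in vehicle wells. Counts were taken on 4× images of lung cancer cell lines in 1536-well plates, 5 days after pin-tool dosing the day after seeding with one drug alone or a fixed anchor-drug dose plus five library-drug doses (not always all listed) in √10 steps.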
# [2] = compound: CC[C@H](C)N1C=C(C2=C(C=C(C=C21)C3=CN=C(C=C3)N4CCNCC4)C(=O)NCC5=C(C=C(NC5=O)C)C)C [GSK126] + Nc1ncn([C@H]2C[C@H](O)[C@@H](CO)O2)c(=O)n1 [Decitabine] (partner 2 µM)
# Outline: as §1
# [3] = compound: CC[C@H](C)N1C=C(C2=C(C=C(C=C21)C3=CN=C(C=C3)N4CCNCC4)C(=O)NCC5=C(C=C(NC5=O)C)C)C [GSK126] + C[C@@H](Oc1cc(-c2cnn(C3CCNCC3)c2)cnc1N)c1c(Cl)ccc(F)c1Cl [Crizotinib] (partner 1 µM)
# Outline: as §1
# [4] = compound: CC[C@H](C)N1C=C(C2=C(C=C(C=C21)C3=CN=C(C=C3)N4CCNCC4)C(=O)NCC5=C(C=C(NC5=O)C)C)C [GSK126] + O=C(CCCCCCC(=O)Nc1ccccc1)NO [Vorinostat] (partner 1 µM)
# Outline: as §1
Cell Line,relative viability ([1]; first compound 0.04 µM),relative viability ([1]; first compound 0.1265 µM),relative viability ([1]; first compound 0.4 µM),relative viability ([1]; first compound 1.265 µM),relative viability ([1]; first compound 4 µM),relative viability ([2]; first compound 0.08 µM),relative viability ([2]; first compound 0.253 µM),relative viability ([2]; first compound 0.8 µM),relative viability ([2]; first compound 2.53 µM),relative viability ([2]; first compound 8 µM),relative viability ([3]; first compound 0.08 µM),relative viability ([3]; first compound 0.253 µM),relative viability ([3]; first compound 0.8 µM),relative viability ([3]; first compound 2.53 µM),relative viability ([3]; first compound 8 µM),relative viability ([4]; first compound 0.08 µM),relative viability ([4]; first compound 0.253 µM),relative viability ([4]; first compound 0.8 µM),relative viability ([4]; first compound 2.53 µM),relative viability ([4]; first compound 8 µM)
LU99A,0.514,0.381,0.3,0.119,0.106,0.986,0.915,1.03,0.916,0.999,0.649,0.545,0.537,0.543,0.525,0.506,0.484,0.443,0.404,0.561
NCI-H1299,–,–,–,–,–,–,–,–,–,–,0.952,0.959,0.779,0.941,0.873,–,–,–,–,–
NCI-H1355,0.592,0.629,0.496,0.236,0.227,0.391,0.334,0.318,0.336,0.416,1.16,1.14,0.981,1.06,1.02,0.635,0.612,0.667,0.602,0.657
HCC-15,0.643,0.444,0.289,0.112,0.106,0.739,0.656,0.685,0.59,0.609,0.882,0.873,0.786,0.748,0.709,0.887,0.756,0.843,0.816,0.714
LXF-289,0.654,0.506,0.462,0.143,0.115,0.38,0.36,0.395,0.388,0.374,0.821,0.786,0.799,0.739,0.8,0.8,0.832,0.718,0.787,0.707
201T,0.991,0.898,0.406,0.277,0.17,0.865,0.899,0.916,0.86,0.946,1.1,1.06,1.03,0.93,1.09,1.05,1.04,0.954,1.13,1.15
HOP-62,0.395,0.378,0.116,0.0547,0.0779,0.216,0.203,0.21,0.197,0.248,0.965,0.996,0.788,0.726,0.928,0.725,0.542,0.633,0.646,0.665
NCI-H1703,–,–,–,–,–,–,–,–,–,–,0.806,0.313,0.42,0.592,0.583,–,–,–,–,–
NCI-H1975,0.706,0.704,0.993,0.559,0.248,0.427,0.321,0.431,0.397,0.377,0.919,0.91,0.886,0.96,0.949,0.708,0.676,0.741,0.645,0.67
NCI-H2023,0.548,0.457,0.166,0.0535,0.0695,0.267,0.232,0.205,0.209,0.219,0.839,0.678,0.747,0.74,0.747,0.962,0.804,0.533,0.709,0.712
EBC-1,–,–,–,–,–,–,–,–,–,–,0.204,0.203,0.182,0.193,0.173,–,–,–,–,–
COR-L23,0.414,0.34,0.195,0.0783,0.0885,0.467,0.373,0.389,0.448,0.433,0.663,0.559,0.659,0.611,0.713,0.56,0.42,0.461,0.453,0.407
NCI-H1793,0.665,0.662,0.886,0.328,0.205,0.601,0.423,0.48,0.567,0.475,–,–,–,–,–,0.841,0.703,0.717,0.825,0.671
A549,–,–,–,–,–,0.224,0.299,0.26,0.253,0.272,0.925,0.677,0.709,0.807,0.652,–,–,–,–,–
CAL-12T,0.792,0.921,0.409,0.259,0.144,–,–,–,–,–,0.805,0.67,0.699,0.398,0.441,0.852,0.814,0.614,0.777,0.9
NCI-H1993,0.645,0.26,0.29,0.309,0.314,0.686,0.597,0.575,0.555,0.605,0.912,0.768,0.924,0.865,0.941,0.921,0.779,0.79,1.02,1.1
ChaGo-K-1,0.681,0.593,0.299,0.167,0.174,0.526,0.506,0.525,0.537,0.544,0.998,1.09,0.976,1.14,1.12,0.767,0.736,0.747,0.825,0.763

Cell Line,relative viability ([1]; first compound 0.04 µM),relative viability ([1]; first compound 0.1265 µM),relative viability ([1]; first compound 0.4 µM),relative viability ([1]; first compound 1.265 µM),relative viability ([1]; first compound 4 µM),relative viability ([2]; first compound 0.08 µM),relative viability ([2]; first compound 0.253 µM),relative viability ([2]; first compound 0.8 µM),relative viability ([2]; first compound 2.53 µM),relative viability ([2]; first compound 8 µM),relative viability ([3]; first compound 0.08 µM),relative viability ([3]; first compound 0.253 µM),relative viability ([3]; first compound 0.8 µM),relative viability ([3]; first compound 2.53 µM),relative viability ([3]; first compound 8 µM),relative viability ([4]; first compound 0.08 µM),relative viability ([4]; first compound 0.253 µM),relative viability ([4]; first compound 0.8 µM),relative viability ([4]; first compound 2.53 µM),relative viability ([4]; first compound 8 µM)
SW 900,–,0.414,0.182,0.175,0.208,0.444,0.356,0.459,0.487,0.462,–,–,–,–,–,0.421,0.546,0.432,0.39,0.566
NCI-H2342,0.809,0.814,0.837,0.873,0.625,0.75,0.7,0.7,0.628,0.812,–,–,–,–,–,0.82,0.753,0.74,0.725,0.857
NCI-H441,0.859,0.733,0.576,0.158,0.152,0.248,0.236,0.143,0.214,0.234,0.936,0.732,0.642,0.441,0.86,1.04,0.59,0.714,0.673,0.791
NCI-H3122,0.708,0.579,0.232,0.103,0.0771,0.417,0.373,0.386,0.466,0.543,0.251,0.341,0.292,0.267,0.347,1.14,1.15,0.933,1.06,1.18
HCC-78,0.442,0.309,0.5,0.245,0.225,0.756,0.659,0.683,0.839,0.74,0.306,0.326,0.318,0.328,0.374,0.429,0.402,0.413,0.437,0.452
HCC-827,0.805,0.716,0.636,0.242,0.215,0.396,0.368,0.313,0.325,0.323,0.938,0.895,0.934,1.02,0.869,0.893,0.929,0.798,0.925,0.919
Calu-6,–,–,–,–,–,–,–,–,–,–,0.906,0.749,0.806,0.844,0.759,–,–,–,–,–
NCI-H2009,0.584,0.345,0.214,0.106,0.103,0.372,0.334,0.45,0.403,0.381,1.08,0.982,1.06,0.968,1.06,0.822,0.679,0.714,0.672,0.771
NCI-H322M,1.27,1.47,0.863,0.38,0.475,0.656,0.676,0.758,0.733,0.754,0.965,0.887,0.833,1.03,0.873,0.838,0.884,0.866,0.939,0.939
NCI-H1648,0.249,0.296,0.276,0.224,0.309,0.561,0.562,0.554,0.633,0.492,–,–,–,–,–,0.496,0.401,0.467,0.5,0.548
NCI-H1792,–,–,–,–,–,0.716,0.546,0.498,0.412,0.575,1.03,1.01,1.03,0.996,0.951,–,–,–,–,–
NCI-H1563,–,–,–,–,–,–,–,–,–,–,0.922,0.755,0.848,0.78,0.718,–,–,–,–,–
NCI-H522,0.704,0.726,0.567,0.344,0.378,0.717,0.587,0.716,0.581,0.683,–,–,–,–,–,0.888,0.887,0.954,1.04,0.92
IA-LM,0.653,0.194,0.17,0.0544,0.0516,–,–,–,–,–,0.831,1.12,0.79,0.729,0.947,1.06,0.797,0.941,0.929,0.853
NCI-H2228,0.73,0.601,0.581,0.13,0.0923,–,–,–,–,–,0.547,0.492,0.368,0.573,0.458,0.343,0.725,0.644,0.616,0.923
NCI-H1395,0.556,0.766,0.523,0.341,0.361,0.718,0.671,0.713,0.736,0.652,–,–,–,–,–,0.655,0.731,0.715,0.855,0.743
